# Measurements reported in PMC6788984, “High-potency ligands for DREADD imaging and activation in rodents and monkeys” (Nature Communications, 2019).
# “And” between values parts separate entries of the source, which are not always exact repeats. Identical values can stand only once. “Also recorded” adds a separate entry of the source.
# What was measured:
# [1] = target: T1, hM4Di (Homo sapiens, UniProt P08173, A203G/Y113C); assay: BRET Galpha-o1 protein activation assay in HEK-293 cells transfected with hM4Di; assay type: cell-based; set-up: host or cells: HEK-293; conditions: for hM4Di activation, concentration-response points: replicates
# T1 sequence (P08173 1-479 Y113C/A203G): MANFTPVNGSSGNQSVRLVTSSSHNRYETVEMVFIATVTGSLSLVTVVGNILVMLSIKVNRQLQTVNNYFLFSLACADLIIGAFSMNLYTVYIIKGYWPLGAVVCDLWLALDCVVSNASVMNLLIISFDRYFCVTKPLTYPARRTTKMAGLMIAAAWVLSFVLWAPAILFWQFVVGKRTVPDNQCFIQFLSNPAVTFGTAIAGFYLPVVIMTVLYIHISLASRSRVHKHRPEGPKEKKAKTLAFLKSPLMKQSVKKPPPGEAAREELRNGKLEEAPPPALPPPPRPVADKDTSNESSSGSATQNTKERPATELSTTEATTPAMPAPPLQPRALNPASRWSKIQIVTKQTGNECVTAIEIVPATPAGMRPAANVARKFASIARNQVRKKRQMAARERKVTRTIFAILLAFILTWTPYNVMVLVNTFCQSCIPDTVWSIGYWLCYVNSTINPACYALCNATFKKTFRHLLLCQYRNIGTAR
# Protocol: (§1) The indicated amount of cDNA was transfected into HEK-293 cells using polyethylenimine (PEI; Sigma-Aldrich) in a 1–2 DNA:PEI ratio. Cell harvesting for radioligand binding experiments or signaling assays were performed approximately 48 h after transfection.
# BRET assays were performed to detect receptor ligand-induced Gαo1 protein activation. […] Forty-eight hour after transfection cells were harvested, washed and resuspended in phosphate-buffered saline (PBS). Approximately, 200,000 cells/well were distributed in 96-well plates, and 5 µM Coelenterazine H (substrate for luciferase) was added to each well. Five minutes after addition of Coelenterazine H, ligands were added to each well. […] Results were calculated for the BRET change (BRET ratio for the corresponding drug minus BRET ratio in the absence of the drug) 5 min after the addition of the ligands.
# [2] = target: T1, hM4Di; assay: Locomotor activity in D1-hM4Di mice
# Description: (§2) Wild-type mice (C57BL/6J) were ordered from Jackson Laboratories and rats (Sprague–Dawley) were ordered from Charles River. Rodents were male and ordered at ~6 weeks of age. Transgenic mice were bred at NIDA breeding facility. […] Three male rhesus monkeys (Macaca mulatta) weighed 8–12 kg. All experiments and procedures complied with all relevant ethical regulations for animal testing and research and followed NIH guidelines and were approved by each institute’s animal care and use committees.
# (§3) Ten minutes after injection, animals were placed in an open field arena (Opto-varimex ATM3, Columbus Instruments) and their locomotor activity was tracked during 60 min as infrared beam crossings and traveled distance was converted to cm. Animals were repeatedly tested on consecutive sessions (after an initial habituation session with no drug treatment) in a counterbalanced design.
# [3] = target: T2, hM3Dq (Homo sapiens, UniProt P20309, A239G/Y149C); assay: Intracellular Ca2+ assay (GCaMP6f) in HEK-293 cells transfected with hM3Dq; assay type: cell-based; set-up: host or cells: HEK-293; conditions: for hM3Dq activation, concentration-response points: replicates
# T2 sequence (P20309 whole entry Y149C/A239G): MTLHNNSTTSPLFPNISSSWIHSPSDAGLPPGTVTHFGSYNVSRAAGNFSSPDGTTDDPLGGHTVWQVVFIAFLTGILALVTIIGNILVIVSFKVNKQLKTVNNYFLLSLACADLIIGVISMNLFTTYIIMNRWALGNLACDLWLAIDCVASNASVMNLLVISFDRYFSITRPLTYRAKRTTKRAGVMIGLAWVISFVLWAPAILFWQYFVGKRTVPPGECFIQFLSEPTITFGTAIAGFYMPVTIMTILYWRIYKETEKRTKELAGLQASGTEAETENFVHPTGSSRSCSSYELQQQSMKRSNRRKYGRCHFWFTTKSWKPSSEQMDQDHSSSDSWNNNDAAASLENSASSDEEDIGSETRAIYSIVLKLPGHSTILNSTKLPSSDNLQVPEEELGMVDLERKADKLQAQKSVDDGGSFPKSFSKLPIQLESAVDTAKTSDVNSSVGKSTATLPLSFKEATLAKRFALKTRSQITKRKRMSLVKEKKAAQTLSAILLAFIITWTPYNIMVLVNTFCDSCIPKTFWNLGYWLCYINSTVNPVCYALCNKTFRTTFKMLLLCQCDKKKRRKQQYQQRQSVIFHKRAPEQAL
# Protocol: as §1
# Intracellular Ca^2+ concentration was monitored using the fluorescent Ca^2+ biosensor GCaMP6f. […] The net change in intracellular Ca^2+ concentration was expressed as F − F0 where F is the fluorescence at a given concentration of ligand and F0 is the average of the baseline values (fluorescence values of buffer-treated wells).
# [4] = system: striatal DREADDs; assay: [11C]clozapine PET DREADD occupancy in AAV-DREADD mice
# Protocol: Animals were anesthetized with isoflurane or a mix of ketamine/xylazine and prepped on a stereotaxic apparatus (Kopf, Germany). […] When indicated, animals were pretreated with vehicle or the indicated drug 10 min before the injection of the PET radiotracer. Total acquisition time was 60 min.
# In all cases, the PET data were reconstructed and corrected for dead-time and radioactive decay. All qualitative and quantitative assessments of PET images were performed using the PMOD software environment (PMOD Technologies, Zurich Switzerland). Binding potential BPND (a relative measure of specific binding) was calculated using a reference tissue model using the cerebellum as a reference tissue in rodents. In macaques, the kinetic data were fitted to a two-tissue compartment model and the concentration of parent in plasma was used as an input function, then the volume of distribution ratios compared to cerebellum were calculated to establish BPND. In all cases, the dynamic PET images were coregistered to MRI templates and time-activity curves were generated using predefined volumes of interest (macaques) or manually drawn in rodents and the described analyses were performed. Receptor occupancy was calculated using the formula: occupancy = (BPND^0 − BPND^Drug)/BPND^0 × 100, where BPND^0 is the binding potential of the baseline condition and BPND^Drug the binding potential when the animals were pretreated with the drug.
# [5] = system: WT mice; assay: Locomotor activity in WT mice
# Description: as §2, §3
# [6] = system: untransfected HEK-293 cells; assay: Negative controls of the functional assays: HEK-293 cells without DREADD; assay type: cell-based, human; conditions: for functional response, BRET (Go-alpha-Rluc8, beta1, gamma2-mVenus), no DREADD / functional response, GCaMP6f, no DREADD: HEK-293 cells
# Protocol: BRET assays were performed to detect receptor ligand-induced Gαo1 protein activation. […] Forty-eight hour after transfection cells were harvested, washed and resuspended in phosphate-buffered saline (PBS). Approximately, 200,000 cells/well were distributed in 96-well plates, and 5 µM Coelenterazine H (substrate for luciferase) was added to each well. Five minutes after addition of Coelenterazine H, ligands were added to each well. The fluorescence of the acceptor was quantified (excitation at 500 nm and emission at 540 nm for 1-s recordings) in a PheraStar FSX plate reader (BMG Labtech) to confirm the constant expression levels across experiments. In parallel, the BRET signal from the same batch of cells was determined as the ratio of the light emitted by mVenus (510–540 nm) over that emitted by RLuc (485 nm). Results were calculated for the BRET change (BRET ratio for the corresponding drug minus BRET ratio in the absence of the drug) 5 min after the addition of the ligands.
# Intracellular Ca^2+ concentration was monitored using the fluorescent Ca^2+ biosensor GCaMP6f. HEK-293 cells were transfected with 7 µg/dish of the cDNA encoding for hM3Dq (Addgene #89149) or hM4Di (Addgene #89150) and 7 µg/dish of GCaMP6. Forty-eight hours after transfection, cells were harvested, washed, resuspended in Mg^2+-free Locke’s buffer pH 7.4 (154 mM NaCl, 5.6 mM KCl, 3.6 mM NaHCO3, 2.3 mM CaCl2, and 5 mM HEPES) containing 5.6 mM of glucose and approximately 200,000 cells/well were distributed in black 96-well plates. Increasing concentrations of the indicated compound were added to the cells and fluorescence intensity (excitation at 480 nm, emission at 530 nm) was measured at 18-s intervals during 250 s using a PHERAstar FSX (BMG Labtech). The net change in intracellular Ca^2+ concentration was expressed as F − F0 where F is the fluorescence at a given concentration of ligand and F0 is the average of the baseline values (fluorescence values of buffer-treated wells).
# [7] = target: T2, hM3Dq; assay: Locomotor activity in TH-hM3Dq rats; assay type: in vivo, rat; set-up: host or cells: TH-expressing neurons of the ventral tegmental area in TH:Cre rats (AAV transduction, in vivo); conditions: for Locomotor activity, individual animals (Figure 3 Panel G): listed as J52
# Protocol: Tyrosine hydroxylase (TH):Cre rats (n = 9; founder, K. Deisseroth lab) or WT littermates (n = 9) were bilaterally injected with AAV2 hSyn-DIO-hM3Dq-mCherry (1ul/hemisphere, Addgene), and allowed to recover for 2 + weeks. […] Vehicle was administered on 2 separate days, and average locomotion was used for comparison with DREADD agonists. Cohort 2 underwent the same procedures, but with a 4 h testing session, and the following IP injections: vehicle (x2), JHU37152 (0.01–0.3 mg kg^−1), JHU37160 (0.01–0.3 mg kg^−1). All drugs were dissolved in 5% DMSO in saline, and injected 1 ml kg^−1.
compound,measurement,setting,value
c1ccc2c(c1)N=C(N1CCNCC1)c1ccccc1N2 [C21],"hM4Di activation, concentration-response points",[1]; Log [compound] -4,96.8817
same,"hM4Di activation, concentration-response points",[1]; Log [compound] -4.5,116.397
same,"hM4Di activation, concentration-response points",[1]; Log [compound] -5,108.743 and 111.119 and 118.355
same,"hM4Di activation, concentration-response points",[1]; Log [compound] -6,104.765 and 108.926 and 107.08
same,"hM4Di activation, concentration-response points",[1]; Log [compound] -7,91.0167 and 106.137 and 98.8868
same,"hM4Di activation, concentration-response points",[1]; Log [compound] -8,65.4069 and 99.8095 and 89.0469
same,"hM4Di activation, concentration-response points",[1]; Log [compound] -9,48.391 and 67.2323 and 60.3348
same,"hM4Di activation, concentration-response points",[1]; Log [compound] -10,22.6996 and 44.1322 and 29.3744
same,"hM4Di activation, concentration-response points",[1]; Log [compound] -12,8.666
same,"hM4Di activation, concentration-response points",[1]; Log [compound] -15,7.3972 and 3.296 and 3.683
same,"Gi/o activation, potency relative to clozapine",[1]; cells or tissue expressing hM4Di,less potent than clozapine
same,locomotor activity,"[2]; D1-hM4Di mice, 1 mg/kg",small but significant decrease in locomotor activity
same,behavior,"[2]; D1-hM4Di mice, 10 mg/kg",sedation
same,dose required to activate hM4Di,[2]; rodents,at least 1 mg kg^-1
same,"hM3Dq activation, concentration-response points",[3]; Log [compound] -5,93.1143 and 77.3513 and 111.083
same,"hM3Dq activation, concentration-response points",[3]; Log [compound] -6,96.4744 and 82.7674 and 98.8645
same,"hM3Dq activation, concentration-response points",[3]; Log [compound] -7,74.044 and 103.149 and 78.6539
same,"hM3Dq activation, concentration-response points",[3]; Log [compound] -8,83.0838 and 91.1589 and 81.1662
same,"hM3Dq activation, concentration-response points",[3]; Log [compound] -9,6.817 and 0.07299 and 9.557
same,"hM3Dq activation, concentration-response points",[3]; Log [compound] -10,-3.555 and -5.9944 and 2.166
same,"hM3Dq activation, concentration-response points",[3]; Log [compound] -11,-13.1516 and -2.046 and 1.55
same,"hM3Dq activation, concentration-response points",[3]; Log [compound] -12,-8.693 and -2.2785 and 8.813
same,hM3Dq-mediated intracellular Ca2+ increases,[3]; transfected HEK-293 cells,potent intracellular Ca^2+ increases comparable to that of clozapine
same,in vivo DREADD occupancy ([11C]CLZ displacement),[4]; 1 mg/kg IP,~ 10%
same,locomotor activity / non-specific effects,"[5]; WT mice, 10 mg/kg",produced non-specific effects
same,doses producing off-target effects,[5]; mice without DREADDs,higher than 1 mg kg^-1
same,locomotor activity,"[5]; mouse, in vivo",did not affect locomotor activity
same,functional response in HEK-293 cells lacking DREADDs,[6],Neither clozapine nor C21 produced detectable functional responses
same,"functional response, BRET (Go-alpha-Rluc8, beta1, gamma2-mVenus), no DREADD",[6],did not show any functional response
same,"functional response, GCaMP6f, no DREADD",[6],did not show any functional response
same,locomotor activity,"[7]; TH-hM3Dq rats, 1 or 5 mg/kg IP",significant increases in locomotor activity
"CCN1CCN(C2=Nc3cc(Cl)ccc3Nc3cccc(F)c32)CC1 [JHU37152, 8-Chloro-11-(4-ethylpiperazin-1-yl)-1-fluoro-5H-dibenzo[b,e][1,4]diazepine]",EC50,[1]; BRET-based assay in HEK-293 cells,0.5 nM
same,locomotor activity,"[2]; D1-hM4Di mice, 0.01 to 1 mg kg-1",selectively inhibiting locomotor activity
same,"Locomotor activity, individual animals (Figure 3 Panel C)",[2]; dose 0.01,58.5024 and 108.441 and 109.915 and 131.721 and 115.402 and 75.1276 and 118.881 and 108.271 and 41.4007
same,"Locomotor activity, individual animals (Figure 3 Panel C)",[2]; dose 0.1,72.1502 and 118.453 and 147.655 and 108.28 and 115.789 and 27.5857 and 55.2206 and 30.1649 and 43.619
same,"Locomotor activity, individual animals (Figure 3 Panel C)",[2]; dose 1,21.6168 and 115.427 and 110.069 and 108.688 and 73.7541 and 20.9336 and 36.5894 and 6.171 and 23.7054
same,EC50,[3]; fluorescent assay in HEK-293 cells,5 nM
same,occupancy of striatal DREADDs,[4]; 0.1 mg kg-1 IP,15–20%
same,locomotor activity,"[5]; WT mice, 0.01 to 1 mg kg-1",without any significant locomotor effects
same,"Locomotor activity, individual animals (Figure 3 Panel A)","[5]; WT mice, dose 0.01",95.2897 and 38.5088 and 39.3587 and 61.0726 and 69.3706 and 99.6544 and 90.1854 and 160.23 and 57.4795 and 29.9947 and 33.6903 and 133.302 and 88.2496 and 102.637 and 90.23
same,"Locomotor activity, individual animals (Figure 3 Panel A)","[5]; WT mice, dose 0.1",107.254 and 270.493 and 33.7361 and 22.8384 and 36.807 and 76.5906 and 34.7692 and 97.3133 and 74.027 and 53.9478 and 95.1236 and 125.045 and 39.4044 and 129.319 and 143.965
same,"Locomotor activity, individual animals (Figure 3 Panel A)","[5]; WT mice, dose 1",81.5049 and 96.9074 and 39.4517 and 156.512 and 62.1842 and 92.749 and 79.3711 and 129.761 and 80.0996 and 7.993 and 23.9209 and 25.8105 and 93.4157 and 30.5341 and 90.9279
same,functional response in HEK-293 cells lacking DREADDs,[6],no responses were observed; also recorded: did not produce any agonistic effect
same,"functional response, BRET (Go-alpha-Rluc8, beta1, gamma2-mVenus), no DREADD",[6],did not show any functional response
same,"functional response, GCaMP6f, no DREADD",[6],did not show any functional response
same,"Locomotor activity, individual animals (Figure 3 Panel G)",[7]; dose 0.01,94.7443 and 207.479 and 64.3586 and 274.036 and 1667.81 and 1211.25 and 111.862
same,"Locomotor activity, individual animals (Figure 3 Panel G)",[7]; dose 0.1,1115.35 and 940.001 and 366.654 and 337.558 and 1635.37 and 694.852 and 547.724
same,hM3Dq-stimulated locomotion,"[7]; TH-hM3Dq rats, 0.01-0.3 mg kg-1","robust, selective increases in hM3Dq-stimulated locomotion"
